This data set can be described thus: gradient 5% acetonitrile 3 min, to 50% in 2 min, to 85% in 15 min, held 3 min, 100 µL/min. To be noted: column: Zorbax Extend-C18 2.1 x 50 mm; eluents: water / acetonitrile, 0.1% formic acid. A digest of the protocol:
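The mobile phases were water and acetonitrile, each with 0.1% formic acid, pumped at 100 μL/min through a Zorbax Extend-C18 column (2.1 × 50 mm, 1.8 μm). Pure standards were injected as mixtures of ~100 molecules and detected by a quadrupole time-of-flight mass spectrometer in positive and negative ionization mode. Retention time came from computationally picked adduct peaks, each inspected by hand.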
As for `Clc1ccc(-c2csc(Cc3nc(-c4ccc5c(c4)OCO5)no3)n2)cc1`, the RP-LC retention time came to 1200 s.
`CC(C)n1nnc2cc(C(=O)N(C)CC(=O)Nc3cccc(Br)c3)ccc21` displayed an RP-LC retention time of 805 s.
The figure for `CCOC(=O)c1cnc(N2CCN(Cc3ccccc3)CC2)c2ccccc12` is 755 s; for `CCOC(=O)c1[nH]c(C)c(CCC(=O)N2CCC(C(=O)NC3CC3)CC2)c1C` it is 650 s; for `Cc1ccccc1-c1noc(CN2N=NC3C(=O)N(c4ccc(C(C)C)cc4)C(=O)C32)n1` (configuration not stated) it is 1150 s.
To `Cc1nc(-c2ccc3c(c2)n(CC(=O)N2CCc4ccccc42)c(=O)n3C(C)C)no1` belongs 922 s; to `C=CCc1cc(OC)c(O)c(C(=O)NCCO)c1`, 735 s.
In turn, `CCOC(=O)c1ccc(NS(=O)(=O)c2cc3n(c2)CCN(C)C3=O)cc1` had an RP-LC retention time of 702 s.
`CCOC(=O)c1cnc2nc(C)ccc2c1Nc1ccc(F)c(C#N)c1` yielded an RP-LC retention time of 684 s.
To `O=C(Cc1ccc(Cl)cc1)NC1CCN(c2nnc3ccc(C(F)(F)F)cn23)CC1` belongs 799 s; to `COc1ccccc1N1CCN(c2cc(SCC(=O)NCc3ccc(Cl)cc3)ncn2)CC1`, 1110 s; to `Cc1cc(=O)n2c(-c3ccc(NC(=O)C(C)Oc4ccc5c(c4)OCO5)cc3)csc2n1` (configuration not stated), 757 s.
`CCc1cc(-c2csc(S(=O)(=O)N(Cc3ccccc3)C(C)C)c2)on1` registered an RP-LC retention time of 1170 s.
The figure for `Cc1ccc(CNC(=O)COc2cc(C)nc(N3CCN(c4ccccc4)CC3)n2)cc1` is 922 s; for `COc1cccc(N2C(=O)CC(c3ccc(OC)c(OC)c3)CC2=O)c1` it is 789 s.
To `CCOc1ccc(NC(=O)c2cc3sc(Cl)cc3n2CC)cc1` belongs 1240 s; to `Cc1nc(NC(=O)c2ccc(Cl)cc2)nc2cc3c(cc12)OCO3`, 750 s; to `Fc1cnccc1CN1CC2(CCCCC2)CC1COc1ccncc1` (configuration not stated), 747 s.
The figure for `COC(=O)CC1=CC(SCC(=O)N2CCC(C)CC2)=Nc2ccccc2N1` is 1000 s; for `O=C(NC1COc2ccccc2C1)N1CCOCC1` (configuration not stated) it is 660 s.
Turning to `Cc1ccc(CNC(=O)C2(C)CN(S(C)(=O)=O)CC(=O)N2c2cc(C)ccc2C)cc1` (configuration not stated), the RP-LC retention time was determined as 898 s.
The figure for `O=C(NCc1ccc2c(c1)OCO2)C1CCCN(c2ncc(-c3cccc(F)c3)cn2)C1` (configuration not stated) is 998 s.
For `COc1cc(NC(=O)C2CCCN(c3nnc4ccccn34)C2)cc(OC)c1OC` (configuration not stated), the RP-LC retention time amounted to 634 s.
The figure for `CCNC(=O)N1CCC(c2noc(-c3ccccc3)n2)C1` (configuration not stated) is 724 s; for `Cn1nc(-c2nc(C3CC3)no2)c2c1CCN(S(=O)(=O)c1ccc(F)cc1)C2` it is 925 s; for `COc1ccc(C(=O)N2CCCn3nc(-c4cccs4)cc3C2)c(OC)c1` it is 798 s.
To `CC(C)C(=O)Nc1cnc(-c2ccc(F)cc2)nc1` belongs 861 s.
To `CCCSc1nnc(NC(=O)CCc2ccc(C)o2)s1` belongs 892 s; to `O=C(c1ccsc1)N1CCC2(CC1)NC(=O)N(Cc1ccccc1)C2=O`, 754 s; to `O=C(Nc1ccc(C(F)(F)F)cc1)N1CC(n2cnnc2-c2ccccc2)C1`, 784 s.
`O=C(CSC1CCc2ccccc2NC1=O)Nc1ccc(Cl)cc1Cl` (configuration not stated): the RP-LC retention time stood at 930 s.
To `Cc1cc(C)n(-c2ccnc(NCCc3ccccn3)n2)n1` belongs 596 s.
To `COCCCNC(=O)c1ccc(-n2nc(C)c3c2CCCC3=O)cc1` belongs 660 s.
The figure for `Cn1ncc(Br)c1C(=O)N1CCCC1c1ccccc1F` (configuration not stated) is 872 s.
Turning to `N=c1nc(N2CCCCC2)cc(N)n1O`, the RP-LC retention time is 676 s.
For `CNC(=O)c1cccc2c1CCN2C(=O)Nc1ccc(C)cc1`, the RP-LC retention time was 747 s.
For `Cn1c(N2CCN(C(=O)Cc3ccc(F)cc3)CC2)cc(=O)n(C)c1=O`, the RP-LC retention time amounted to 680 s.
The figure for `Cc1ccccc1Nc1c(-c2ccc(Br)cc2)nc2cnccn12` is 1060 s.
In turn, `CCn1nccc1-c1cccc(-c2noc(-c3cc4ccccc4oc3=O)n2)c1` had an RP-LC retention time of 1060 s.
Regarding `O=c1[nH]c2ccc(NCc3ccccc3Cl)cc2[nH]1`, the RP-LC retention time was 641 s.
With `Cc1ccc(OCC(=O)N2CCC(c3noc(-c4cnccn4)n3)C2)cc1` (configuration not stated), the RP-LC retention time was found to be 754 s.
To `COc1ccc(-c2cn3c(CC(=O)Nc4cc(Cl)ccc4OC)csc3n2)cc1` belongs 847 s.
Compound `CCN(CC)c1ncc2c(n1)CCC(C(=O)N1CCN(c3ccc(C)cc3)CC1)C2` (configuration not stated) came in with an RP-LC retention time of 793 s.
To `COc1ccc(OC)c(C2CN(C(=O)C3CCCC3)CC2C(=O)N2CCCCC2)c1` (configuration not stated) belongs 831 s; to `O=C1C(=O)N(C2CCN(S(=O)(=O)c3ccc(F)c(F)c3)CC2)CCN1Cc1ccccc1`, 827 s; to `CCOc1cc(=O)n2c(c1C(=O)N1CCCc3ccccc31)CCCC2`, 707 s.
To `O=S(=O)(Cc1ccccc1)N1CCC(c2noc(COCC3CC3)n2)CC1` belongs 941 s.
To `COc1ccccc1-c1nc(-c2ccc3c(c2)ncn3CCN2CCOCC2)no1` belongs 625 s; to `CCOC(=O)c1sc(NC(=O)c2cc3ccccc3o2)nc1C`, 974 s; to `Cc1cc(Cl)ccc1NC(=O)N(C)CC1CCOC1` (configuration not stated), 756 s.
Take `CN(CCc1noc(-c2ccc(C(=O)N3CCCCC3)cc2)n1)C(=O)C1CC1`: the RP-LC retention time was found to be 742 s.
To `O=c1ccc(-c2ccccc2)nn1CCc1nc(-c2ccc(Br)cc2)no1` belongs 1060 s; to `Cc1nc2n(c(=O)c1C)CCN2CC(=O)NCc1ccco1`, 596 s; to `O=C(NCCc1csc(-c2cccs2)n1)C1CCN(C(=O)c2cccc(Cl)c2)CC1`, 839 s.
`CCC(=O)n1nc(C)c(S(=O)(=O)N2CCCCC2)c1C` yielded an RP-LC retention time of 1040 s.
`Cc1ccc(-c2nc3cnccn3c2NCCC(=O)NCc2ccc(C)o2)cc1` displayed an RP-LC retention time of 710 s.
To `CN1C(=O)c2ccccc2C(C(=O)Nc2ccc(F)cc2F)C1c1cccs1` (configuration not stated) belongs 884 s.
The figure for `Cc1cccc(NS(=O)(=O)c2ccc(-c3nnc(C4CCC4)o3)o2)c1` is 924 s; for `O=C(Cc1cccnc1)N1CCC[C@H]1c1nc(-c2ccccc2)n[nH]1` it is 578 s.
`COc1ccc(C(=O)NC2CCN(c3ccc(F)cc3)C2=O)cc1F` (configuration not stated) had an RP-LC retention time of 806 s.
`Cc1ccc2oc(-c3nnc(C(=O)NCc4ccc(C)o4)o3)c(C)c2c1`: the RP-LC retention time is 1100 s.
Regarding `COC(=O)C1=CN(CC(=O)NCc2ccc(OC)cc2)S(=O)(=O)N=C1C`, the RP-LC retention time is 1110 s.
Take `O=C(c1cc(C2CC2)[nH]n1)N1CCCCC1`: the RP-LC retention time is 661 s.
Compound `CCOC(=O)CCNC(=O)N1CCN(Cc2nc3cc(-c4ccccc4)ccc3o2)CC1` showed an RP-LC retention time of 675 s.
In turn, `CN(C(=O)Cn1cnc2c(-c3ccc(F)cc3)csc2c1=O)c1ccccc1` showed an RP-LC retention time of 948 s.
The figure for `CCCCS(=O)(=O)N1CCC(n2c(-c3ccc(OC)cc3)nc3cccnc32)C1` (configuration not stated) is 846 s.
For the compound `Cc1ccccc1Cn1nc(-c2nc(-c3ccc(F)cc3)no2)ccc1=O`, the RP-LC retention time turned out to be 1130 s.
In turn, `CC(C)Oc1ccc(C(=O)N2CCC3(CC2)C(=O)N(C)c2ccccc23)cc1` returned an RP-LC retention time of 930 s.
Regarding `COc1cc(CN2CCc3nc(N4CCC(C)CC4)ncc3C2)ccc1OC(C)C`, the RP-LC retention time turned out to be 764 s.
To `COc1ccc(NC(=O)NCC2CCOCC2)cc1F` belongs 668 s; to `COC(=O)c1c(NC2CCCCC2)c2cccc(Cl)c2[nH]c1=O`, 876 s; to `CCc1noc2nc(C)n(CC(=O)NCc3ccc(OC(C)C)cc3)c(=O)c12`, 661 s.
`COc1ccc2c(c1)C1(CCN(S(=O)(=O)c3ccc4c(c3)CC(=O)N4C)C1)C(=O)N2C` (configuration not stated) gave an RP-LC retention time of 744 s.
The figure for `CCCCN(CC)c1nc2cc(C(=O)OC)ccc2c(=O)n1-c1ccccc1` is 1250 s.
On to `COc1ccc(NC(=O)CCC2CCN(c3cc(NC4CC4)ncn3)CC2)cc1OC`, for which the RP-LC retention time turned out to be 646 s.
To `O=C(Cc1ccc(Cl)cc1)NCC(=O)N1CCCc2ccccc21` belongs 862 s.
As for `Cc1ccsc1CN1CCc2[nH]nc(C(=O)N(C)C)c2C1`, the RP-LC retention time came to 559 s.
To `CSc1ccc(-c2nc3ncccn3c2Nc2ccccc2)cc1` belongs 777 s; to `Cc1ccc(CNC(=O)c2cc(C)n3nc(-c4ccccn4)cc3n2)cc1`, 924 s.
To `COCc1cc(=O)n(CC(=O)Nc2cccc(OC)c2)c(N2CCOCC2)n1` belongs 779 s; to `CCc1c(C)nc2nc(-c3ccco3)nn2c1N1CCN(c2ccccn2)CC1`, 616 s; to `Cc1[nH]c(C(=O)N2CCC(CC(=O)NCc3ccc(Cl)cc3)CC2)c(C)c1C(=O)OC(C)C`, 878 s.

For the origin of these results see the METLIN SMRT retention time set (Domingo-Almenara et al. 2019).
